Data: patent US20230128972A1, “Anat Inhibitors and Methods of Use Thereof” (Atomwise Inc., priority 2020, published 2023)

Target: T1, aspartate N-acetyltransferase (ANAT) (Homo sapiens, UniProt Q8N9F0)
T1 construct: 6xHis (C); made in house; host or cells: E. coli BL21(DE3)
T1 sequence (Q8N9F0 1-302): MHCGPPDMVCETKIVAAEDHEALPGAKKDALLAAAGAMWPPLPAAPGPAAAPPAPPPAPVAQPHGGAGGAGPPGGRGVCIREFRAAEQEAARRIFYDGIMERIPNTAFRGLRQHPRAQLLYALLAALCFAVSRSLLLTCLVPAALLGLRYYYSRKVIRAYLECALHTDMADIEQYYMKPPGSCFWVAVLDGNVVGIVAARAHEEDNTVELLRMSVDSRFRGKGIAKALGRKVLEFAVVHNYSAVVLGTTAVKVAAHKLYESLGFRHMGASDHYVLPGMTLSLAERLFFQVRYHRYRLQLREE
Assay: ANAT in vitro activity assay (DTNB, coenzyme A production)
Assay type: biochemical
Conditions: for Ki: dose-response protocol, competitive inhibition fit, Km for L-aspartate 160 μM; for potency against ANAT: dose-response protocols, in words
Description: The experimental assay was based on a custom protocol developed by the Viola lab described previously (see, e.g., Thangavelu et al., 2017, “Design and optimization of aspartate N-acetyltransferase inhibitors for the potential treatment of Canavan disease,” Bioorganic & Medicinal Chemistry, 25(3), pp. 870-885). Each of the purchased compounds was tested in an initial screen at 1 mM, followed by a second screen of the initial inhibitors at 50 μM.
The challenge of solubilizing and purifying the membrane-associated enzyme ANAT has been addressed through the creation of a fusion construct with maltose binding protein (MBP) as a fusion partner, as described previously. Briefly, aspartate ANAT was expressed with an N-terminal MBP tag in E. coli BL21(DE3) cells. A 6×His-tag was inserted at the C-terminal of the enzyme to facilitate purification. 20 ml LB media was grown overnight from a single colony in the presence of kanamycin at a final concentration of 50 μg/ml at 37° C. The overnight culture was then diluted into 2 L LB media and grown with shaking at 37° C. until the OD600 reached 0.6. Isopropyl β-D-thiogalactopyranoside (IPTG) was then added at a final concentration of 0.1 mM for induction, and cell growth continued at 16° C. for 16-20 hours. The cell culture was harvested by centrifugation at 11,000 rpm for 15 min. The cells were then resuspended in binding buffer consisting of 20 mM potassium phosphate, pH 7.4, 300 mM NaCl, 20 mM imidazole, and 10% glycerol. The cells were lysed by adding lysozyme (50 μg/ml of buffer) and DNAse (5 μg/ml of buffer) in an ultrasonic dismembrator, followed by clarification of the cells by centrifugation at 11,000 rpm to remove the insoluble cell debris. The clarified supernatant was loaded onto a Ni-NTA column and eluted with a 20-300 mM imidazole gradient in the binding buffer using an AKTA chromatography system. The fractions containing active enzyme purified from the Ni-NTA column were pooled and loaded onto a dextrin-Sepharose column for further purification. The MBP-ANAT fusion enzyme was eluted from this column by using a 0-10 mM maltose gradient. SDS-PAGE gel was run to confirm the molecular weight and purity of the enzyme.
ANAT activity was measured by monitoring the production of coenzyme A using 5,5′-dithio-bis-[2-nitrobenzoic acid] (DTNB). […] The increasing absorption at 412 nm was monitored for up to 30 min during the reaction. 10% DMSO was maintained in the first screen while 20% DMSO was used in the second screen to dissolve the insoluble or partially soluble compounds in the assay wells.
Ki was calculated using the competitive inhibition routine within the nonlinear regression module of GraphPad Prism 8.3.0 with the following equation: […]
where Km for L-aspartate was set to 160 μM, and [I] and [S] denote the concentrations of the inhibitor and substrate, respectively.

Row | Structure (SMILES) | Ki [µM] | potency against ANAT
1 | Nc1cc(N)nc(SCc2ncc(-c3ccc(F)cc3)o2)n1 [Formula 1, 2-{[5-(p-Fluorophenyl)-1,3-oxazol-2-yl]methylthio}-4,6-pyrimidinediamine] | 8.2 | low-micromolar
2 | CCOC(=O)c1sc(NC(=O)COC(=O)Cn2c(=O)cnc3ccccc32)cc1C [Formula 2, Ethyl 3-methyl-5-{2-[(2-oxo-1H-quinoxalin-1-yl)acetoxy]acetylamino}-2-thenoate] | 8.5 | low-micromolar

Continued, values first:

Row | Ki [µM] | potency against ANAT | Structure (SMILES)
3 | 9.1 | low-micromolar | Cc1nnc(SCc2nnc(-c3c(-c4ccccc4)noc3C)o2)s1 [Formula 3, 5-(5-Methyl-3-phenyl-4-isoxazolyl)-2-[(5-methyl-1,3,4-thiadiazol-2-ylthio)methyl]-1,3,4-oxadiazole]
4 | 4.5 | low-micromolar | Cc1c(C(=O)O)sc2[nH]c(=O)cc(CSc3nnc(C4CC4)[nH]3)c12 [Formula 4, 4-[(5-Cyclopropyl-4H-1,2,4-triazol-3-ylthio)methyl]-3-methyl-6-oxo-1-thia-7-aza-7H-indene-2-carboxylic acid]
5 | 0.91 | low-micromolar | O=C(OCCSc1ccc([N+](=O)[O-])c2nonc12)c1ccc(Cl)cc1Cl [Formula 5, 2-(7-Nitro-2,1,3-benzofurazan-4-ylthio)ethyl 2,4-dichlorobenzoate]
